Earlier results as cited in patent US8529954B2, “Composition based on gamma-hydroxybutyric acid” (Debregeas et Associes Pharma, priority 2008, dated 2013).
Structures can show the parent of a compound that is named as a salt.

Columns and labels:
[1] = approximately

| Structure (SMILES) | maximum peak after its administration (time of peak) ([1]; absorbed by the gastroenteric system) | half life [1] | time in which it is eliminated [1] | stability in an acidic environment |
| --- | --- | --- | --- | --- |
| O=C(O)CCCO [sodium hydroxybutyrate, sodium salt of 4-hydroxybutyric acid] | 30 to 45 min | 20 to 25 min | 4 to 5 h |  |
| O=C(O)CCCO [GHB, Gamma-hydroxybutyric acid] |  |  |  | unstable |
